System: adult patients with uncontrolled gout
Experiment: Serum uric acid (sUA) levels and sUA responder rate, open-label study of pegloticase with MTX (MIRROR OL)
Type: in vivo, human
Experimental: The primary objective is to estimate the response rate during Month 6 (Weeks 20, 22, and 24), as measured by the sustained normalization of serum uric acid (SUA) to <6 mg/dL for at least 80% of the time during Month 6 in subjects receiving KXX with MTX.
The primary efficacy outcome endpoint is the sustained normalization of SUA to <6 mg/dL for at least 80% of the time during month 6 (weeks 20, 22, and 24) in subjects receiving KXX with MTX. […] Participants who achieve this endpoint were classified as “responders.” Serum uric acid (SUA) responders may also be defined as participants achieving and maintaining SUA <6 mg/dL for at least 80% of the time during Month 6 (Weeks 20, 22, and 24).
Blood samples may be collected prior to each pegloticase infusion for measurement of SUA levels using the Beckman Coulter AU System Uric Acid procedure. Participants were declared “non-responders” if there were SUA measures >6 mg/dL at 2 consecutive study visits beginning with the week 2 visit. […] This assumption and subsequent discontinuation of pegloticase was consistent with the protocol of large phase III randomized controlled trials and the product label. A formal stopping rule was 2 occasions of SUA levels of greater than 6 mg/dL.
Clinical Chemistry—Blood samples were collected prior to each pegloticase infusion for measurement of SUA levels (primary efficacy parameter) using the Beckman Coulter AU System Uric Acid procedure. In this procedure uric acid is converted to hydrogen peroxide. Hydrogen peroxide reacts with reagent to produce a chromophore which is read bichromatically at 660/800 nm. The amount of dye formed is proportional to the uric acid concentration in the sample.
Serum samples for measurement of SUA levels were collected at the Screening Visit, the Week −4 Visit (prior to the first dose of MTX), and the Week −2 Visit during the MTX Run-in Period; within 48 hours prior to each pegloticase infusion and after the end of each pegloticase infusion prior to discharge from the site during the Pegloticase+IMM Period; at the non-infusion Week 52/End of Study/Early Termination Visits and at the Post Treatment 3 and 6 Month Follow-up Visits. Additional serum samples for SUA levels were collected at optional non-infusion (Frequent Sampling) Visits at Weeks 1 and 7. […] Subjects with SUA level >6 mg/dL at 2 consecutive visits beginning at Week 2 visit discontinued treatment, completed the End of Pegloticase Infusion Visit procedures within 2 weeks and continued the subject visits according to the protocol (without treatment).
Efficacy analyses were performed using the modified intention-to-treat (mITT) population, defined as all enrolled subjects who received ≥1 dose of pegloticase. The proportion of Month 6 responders was summarized, along with a 95% confidence interval for the proportion. The proportion of Month 3 and overall (Months 3 and 6 combined) responders was analyzed similarly.
A subject was declared a non-responder if the subject had SUA level >6 mg/dL at 2 consecutive study visits beginning with the Week 2 Visit. In addition, a subject who withdraws from study treatment for any reason after the first dose of pegloticase in the KXX+MTX Period and prior to Month 6 (for the primary endpoint) or Month 3 (for the secondary endpoint) was considered a non-responder if SUA values were not collected at the planned time points.
Patients were administered oral MTX (15 mg/week) and folate (1 mg/day) 4 weeks prior to the first pegloticase infusion (Day 1) and throughout the pegloticase treatment period. Blood was drawn prior to each infusion to measure sUA level, monitor clinical parameters, and examine for ADA development. All patients followed typical IR prophylaxis protocols (fexofenadine one day before and the morning of each infusion and acetaminophen and IV corticosteroid the morning of each infusion).

[1] = Day 1 - Post-Infusion, mITT Population
[2] = Early Termination Visit, mITT Population
[3] = End of Pegloticase Infusions Visit, mITT Population
[4] = Month 6 sUA Non-Responders, Day 1-Post-Infusion, n=3
[5] = Month 6 sUA Non-Responders, Early Termination Visit, n=3
[6] = Month 6 sUA Non-Responders, Week 1, n=2
[7] = Month 6 sUA Non-Responders, Week 2-Post-Infusion, n=3
[8] = Month 6 sUA Non-Responders, Week 2-Pre-Infusion, n=3
[9] = Month 6 sUA Non-Responders, Week 4-Pre-Infusion, n=3
[10] = Month 6 sUA Non-Responders, Week 8-Post-Infusion, n=1
[11] = Month 6 sUA Non-Responders, Week 8-Pre-Infusion, n=1
[12] = Month 6 sUA Non-Responders, Week 10-Pre-Infusion, n=1
[13] = Month 6 sUA Responders, Day 1-Post-Infusion, n=8

pegloticase was tested. Which “Serum Uric Acid, Change from Baseline, Mean (SD)” value (shortened to “Serum Uric Acid, Change … (SD)”) [1] did it give?
Its value is −7.29 (2.254) mg/dL.

What about the “Serum Uric Acid, Change from Baseline, Median” value [1] of the same substance?
Its value is -7.30 mg/dL.

And the “Serum Uric Acid, Observed, Mean (SD)” value [1]?
The value was 1.18 (1.417) mg/dL.

And the “Serum Uric Acid, Observed, Median” value [1]?
The value was 0.30 mg/dL.

What about the “sUA <6 mg/dL, n (%)” value [1] of the same substance?
Its value is 11 (100%).

And the “Serum Uric Acid, Change … (SD)” value [2]?
Its value is −0.57 (0.635) mg/dL.

What about the “Serum Uric Acid, Change from Baseline, Median” value [2] of the same substance?
Its value is -0.20 mg/dL.

And the “Serum Uric Acid, Observed, Mean (SD)” value [2]?
The value was 8.17 (0.058) mg/dL.

What about the “Serum Uric Acid, Observed, Median” value [2] of the same substance?
Its value is 8.20 mg/dL.

And the “sUA <6 mg/dL, n (%)” value (Early Termination Visit, mITT Population, number of subjects (% not given))?
Its value is 0.

And the “Serum Uric Acid, Change … (SD)” value [3]?
Its value is −8.50 (1.556) mg/dL.

What about the “Serum Uric Acid, Change from Baseline, Median” value [3] of the same substance?
The value was -8.50 mg/dL.

What about the “Serum Uric Acid, Observed, Mean (SD)” value [3] of the same substance?
Its value is 0.30 (0.000) mg/dL.

And the “Serum Uric Acid, Observed, Median” value [3]?
The value was 0.30 mg/dL.

And the “sUA <6 mg/dL, n (%)” value [3]?
The value was 2 (100%).

And the “Serum Uric Acid, Change … (SD)” value [4]?
Its value is −6.60 (2.848) mg/dL.

And the “Serum Uric Acid, Change from Baseline, Median” value [4]?
Its value is -7.20 mg/dL.

And the “Serum Uric Acid, Observed, Mean (SD)” value [4]?
The value was 2.13 (2.438) mg/dL.

And the “Serum Uric Acid, Observed, Median” value [4]?
Its value is 1.20 mg/dL.

And the “sUA <6 mg/dL, n (%)” value [4]?
The value was 3 (100%).

What about the “Serum Uric Acid, Change … (SD)” value [5] of the same substance?
The value was −0.57 (0.635) mg/dL.

What about the “Serum Uric Acid, Change from Baseline, Median” value [5] of the same substance?
Its value is -0.20 mg/dL.

What about the “Serum Uric Acid, Observed, Mean (SD)” value [5] of the same substance?
The value was 8.17 (0.058) mg/dL.

And the “Serum Uric Acid, Observed, Median” value [5]?
Its value is 8.20 mg/dL.

What about the “sUA <6 mg/dL, n (%)” value [5] of the same substance?
Its value is 0%.

What about the “Serum Uric Acid, Change … (SD)” value [6] of the same substance?
Its value is −8.10 (0.000) mg/dL.

What about the “Serum Uric Acid, Change from Baseline, Median” value [6] of the same substance?
Its value is -8.10 mg/dL.

What about the “Serum Uric Acid, Observed, Mean (SD)” value [6] of the same substance?
Its value is 0.30 (0.000) mg/dL.

And the “Serum Uric Acid, Observed, Median” value [6]?
Its value is 0.30 mg/dL.

What about the “sUA <6 mg/dL, n (%)” value [6] of the same substance?
The value was 2 (100%).

And the “Serum Uric Acid, Change … (SD)” value [7]?
The value was −8.43 (0.577) mg/dL.

And the “Serum Uric Acid, Change from Baseline, Median” value [7]?
The value was -8.10 mg/dL.

What about the “Serum Uric Acid, Observed, Mean (SD)” value [7] of the same substance?
Its value is 0.30 (0.000) mg/dL.

What about the “Serum Uric Acid, Observed, Median” value [7] of the same substance?
The value was 0.30 mg/dL.

And the “sUA <6 mg/dL, n (%)” value [7]?
The value was 3 (100%).

And the “Serum Uric Acid, Change … (SD)” value [8]?
Its value is −5.17 (4.225) mg/dL.

And the “Serum Uric Acid, Change from Baseline, Median” value [8]?
Its value is -5.70 mg/dL.

What about the “Serum Uric Acid, Observed, Mean (SD)” value [8] of the same substance?
The value was 3.57 (3.775) mg/dL.

And the “Serum Uric Acid, Observed, Median” value [8]?
The value was 2.70 mg/dL.

What about the “sUA <6 mg/dL, n (%)” value [8] of the same substance?
The value was 2 (66.7%).

And the “Serum Uric Acid, Change … (SD)” value [9]?
Its value is −3.70 (4.744) mg/dL.

What about the “Serum Uric Acid, Change from Baseline, Median” value [9] of the same substance?
Its value is -1.80 mg/dL.

What about the “Serum Uric Acid, Observed, Mean (SD)” value [9] of the same substance?
The value was 5.03 (4.177) mg/dL.

And the “Serum Uric Acid, Observed, Median” value [9]?
Its value is 6.60 mg/dL.

And the “Serum Uric Acid, Change … (SD)” value [10]?
The value was −9.10 (NE) mg/dL.

What about the “Serum Uric Acid, Change from Baseline, Median” value [10] of the same substance?
Its value is -9.10 mg/dL.

What about the “Serum Uric Acid, Observed, Mean (SD)” value [10] of the same substance?
The value was 0.30 (NE) mg/dL.

And the “Serum Uric Acid, Observed, Median” value [10]?
Its value is 0.30 mg/dL.

What about the “sUA <6 mg/dL, n (%)” value [10] of the same substance?
The value was 1 (100%).

What about the “Serum Uric Acid, Change … (SD)” value [11] of the same substance?
Its value is −0.50 (NE) mg/dL.

And the “Serum Uric Acid, Change from Baseline, Median” value [11]?
Its value is -0.50 mg/dL.

And the “Serum Uric Acid, Observed, Mean (SD)” value [11]?
The value was 8.90 (NE) mg/dL.

And the “Serum Uric Acid, Observed, Median” value [11]?
Its value is 8.90 mg/dL.

What about the “sUA <6 mg/dL, n (%)” value [11] of the same substance?
The value was 0%.

And the “Serum Uric Acid, Change … (SD)” value [12]?
The value was −1.30 (NE) mg/dL.

What about the “Serum Uric Acid, Change from Baseline, Median” value [12] of the same substance?
The value was -1.30 mg/dL.

What about the “Serum Uric Acid, Observed, Mean (SD)” value [12] of the same substance?
Its value is 8.10 (NE) mg/dL.

What about the “Serum Uric Acid, Observed, Median” value [12] of the same substance?
The value was 8.10 mg/dL.

And the “sUA <6 mg/dL, n (%)” value [12]?
Its value is 0%.

And the “Serum Uric Acid, Change … (SD)” value [13]?
Its value is −7.55 (2.158) mg/dL.

And the “Serum Uric Acid, Change from Baseline, Median” value [13]?
Its value is -7.50 mg/dL.

What about the “Serum Uric Acid, Observed, Mean (SD)” value [13] of the same substance?
Its value is 0.83 (0.798) mg/dL.

— patent publication US20220409620A1, “REDUCING IMMUNOGENICITY TO PEGLOTICASE” (Horizon Pharma Rheumatology LLC, priority 2016, published 2022)
